Assay results from patent US20090142363A1, “CYTOTOXIC T-CELL EPITOPE PEPTIDE AND USE THEREOF” (priority 2005, published 2009).
No end group written: not given here.

Tests used:
Assay type in all cases: cell-based, human
[1] = test system: PBMCs of healthy adults reactive to the anti-HLA-A*24 antibody; experiment: Induction of specific CTLs from PBMCs, method for quantifying cells producing intracellular IFNγ; set-up: key to specific CTL induction, cytokine quantification method: ∘: “open circle” indicates that the use of a candidate peptide enabled specific CTLs to be induced; x: “cross” indicates that specific CTLs was unable to be induced; settings: for CD8-positive, IFNγ-positive (producing) cells in UR: restimulation with the same peptide as used in the induction, % in PBMCs; for peptide-specific cytokine production in PBMCs derived from ten people with HLA-A*24 molecule: summary of Table 2; for number of persons with peptide-specific IFNγ production / CTL induction: ten persons tested
Method: This induction method induces CTLs by adding peptides to culture media of PBMCs. Peptides are presented on antigen-presenting cells present among PBMCs, such as dendritic cells, B cells, macrophages, and certain types of T cells, whereby CTL precursor cells in PBMCs are stimulated to proliferate.
Peripheral blood collected from healthy adults that were reactive to the anti-HLA-A*24 antibody was centrifuged at 3,000 rpm for 5 to 10 minutes. The resulting supernatant plasma was collected. The non-plasma portion was processed according to a conventional method to isolate PBMCs. The characteristic of the present method is the addition of several % of plasma to an induction medium. In the present invention, a favorable result was obtained by adding 5% plasma. The medium is prepared by adding appropriate additives and antibiotics to a medium commonly used for cell culture. The CTL induction medium used in the present invention was RPMI1640 Hepes modify (Sigam) supplemented with 2-mercapotethanol, L-glutamine, and the antibiotics streptomycin and penicillin. In addition to these, insulin, transferrin, selenious acid, pyruvic acid, human serum albumin, solution of non-essential amino acids, and the like may be added. 1 to 3×10^6 PBMCs were suspended in 1 to 2.5 ml of the culture medium. A candidate peptide was added to the cells at a concentration of 1 to 20 μg/ml. The concentration of peptide can be altered depending on the solubility of the peptide. The peptide was added at 10 μg/ml. After two days, IL-2 was added at a final concentration of 20 to 100 U/ml. Round-bottomed culture dishes that allow the exchange of carbon dioxide gas are preferably used to co-culture PBMCs with peptides. In the context of the present invention, 14-ml round-bottomed polypropylene tubes (Becton Dikinson) or 96-well U-bottomed cell culture microtest plates (Becton Dikinson) were used. The adenovirus-specific CTLs were confirmed after about two and four weeks of culture. The cells were stimulated again with the peptide at 10 μg/ml after about two weeks of culture. When the induction of adenovirus-specific CTLs was confirmed, the cells were further stimulated with peptide-pulsed antigen-presenting cells to establish CTL lines.
Approximately 1/10 to all of the cells induced by the above-described method were transferred into 96-well U-bottomed cell culture microtest plates, and the peptide used for the induction was added thereto at a final concentration of 0.01 to 0.05 μg/ml. Then, an intracellular protein transport inhibitor (for example, brefeldin A, monensin, or such) was added, and the cells were cultured in a 5% CO2 incubator at 37° C. for 5 to 16 hours. After culture, the cells were washed, and phycoerythrin (PE)-labeled MHC-tetramer reagent and phycoerythrin-Cy5(PC5)-labeled CD8 antibody (Beckman Coulter) were added thereto. The resulting mixture was allowed to stand at room temperature for 15 to 30 minutes. After washing, the cells were fixed with 4% formaldehyde at 4° C. for 15 minutes and washed with an excess amount of washing solution. After membrane permeabilization treatment with 0.1% saponin, an FITC-labeled anti-IFNγ antibody (Beckman Coulter) was added, and reacted at room temperature for 15 to 30 minutes. After washing, the proportion of IFNγ-positive cells in T cells or MHC-tetramer reagent-positive cells was determined using a flow cytometer.
PBMCs derived from ten people with HLA-A*24 molecule were tested using 10 types of peptides. […] Thus, these six types of candidate epitope peptides serve as adenovirus-specific CTL epitope peptides. Since the adenovirus-specific CTL epitope peptides have the HLA-A*24-binding motif, they are likely to be HLA-A*2402-restricted epitope peptides, which are carried by 60% or more of the Japanese people. In the context of the results described above, MHC-tetramer reagents were synthesized using five types of epitope peptides, and their utility was tested.

[2] = test system: CTLs with target cells expressing HLA-A*24 molecules; experiment: Confirmation of CTLs by ELISPOT assay (IFNγ spots); settings: FIG. 4
Method: A commercially available ELISPOT assay kit (for example, MABTECH Co.) may be purchased, and the assay can be performed according to the manufacturer's protocol. Alternatively, the assay may also be carried out by the following procedure. 96-well MultiScreen-HA plates (Millipore Co.) were coated with an anti-IFNγ monoclonal antibody (R&D Systems Co.) at 4° C. for overnight. Each well was washed with PBS. Target cells were plated into each well. Any cells expressing HLA-A*24 molecules on their surface can be used as the target cells. For example, T2-A24, a cultured cell which a gene of HLA-A*24 molecule is introduced into a 174CEM.T2 cell, can be used. Alternatively, EBV-infected LCLs expressing HLA-A*24 molecules on their surface can be used as the target cells. These target cells were added into each well with a candidate peptide for adenovirus-specific CTL epitopes or a negative control (HIV) peptide. The mixtures were allowed to stand at room temperature for 30 minutes. Then, an adequate number of CTLs were added, and the mixtures were cultured in a 5% CO2 incubator at 37° C. for 20 hours. CTLs that responded to the candidate epitope peptide secreted IFNγ during this culture period, and the IFNγ bound to the anti-IFNγ monoclonal antibody that was coated on the plates. After culturing was completed, the plates were washed with PBS containing 0.05% Tween-20. Then, an anti-IFNγ polyclonal antibody (Genzyme Co.) and peroxidase-labeled goat anti-rabbit IgG serum were allowed to react in this order at room temperature for 90 minutes each. Furthermore, 3-amino-9-ethylcarbasole (Sigma), a peroxidase substrate, and 0.1M sodium acetate buffer (pH 5.0) containing 0.015% H2O2 was added to each well, and the plates were incubated at room temperature for 40 minutes to visualize the IFNγ spots. The spots were counted under a stereomicroscope.
The spots were counted under a stereomicroscope, and were plotted on a graph.

[3] = test system: CTL line induced by TYF (PBMCs from ID*24-8); experiment: Cross-reactivity of the TYF-induced CTL line to the subgroup C-specific CTL epitope; settings: PBMCs from ID*24-8 stimulated with TYF for 13 days
From the text: As shown in FIG. 11-4, there are amino acid mutations at the fourth and sixth positions in TYF identified in the present invention as compared to the subgroup C-specific CTL epitopes. Thus, the cross-reactivity to subgroup C-specific CTL epitope ([…] (SEQ ID NO: 14); mutated amino acids are underlined) (Leen A M, Sili U, Vanin E F, Jewell A M, Xie W, Vignali D, Piedra P A, Brenner M K, Rooney C M. Conserved CTL epitopes on the adenovirus hexon protein expand subgroup cross-reactive and subgroup-specific CD8+ T cells. Blood. 104:2432-2440 (2004)) was examined using a CTL line induced by TYF.
PBMCs prepared from ID*24-8 were stimulated with TYF for 13 days, and then restimulated with TYF or […] (SEQ ID NO: 14) to examine whether the CTL line produces IFNγ.

[4] = test system: peripheral blood / PBMCs / peptide-induced CTL lines of HLA-A*24 donors; experiment: Staining of peripheral blood, PBMCs or peptide-induced CTL lines with MHC-tetramer reagents
Method: MBL Co. where the present inventors are affiliated with has acquired exclusive patent licensing rights in Japan for MHC-tetramer reagents (U.S. Pat. No. 5,635,363; French Application No. FR9911133; and U.S. Pat. Nos. 5,723,584, 5,874,239, 5,932,433, and 6,265,552) from Beckman Coulter Co. Based on the patents, PE-labeled MHC-tetramer reagents were prepared using adenovirus-specific CTL epitope peptides and HLA-A*2402 molecules.
Adenovirus-specific CTLs quantification was carried out using MHC-tetramer reagents that was prepared using CTL epitope peptides of the present invention, with peripheral blood, PBMCs isolated from peripheral blood, CTL lines induced using CTL epitope peptides as samples. Examples of quantification using PE-labeled MHC-tetramer reagents are described below. Labelling dyes may be used in an appropriate combination depending on the type of flow cytometer to be used, and is not limited to the examples described below.
Ten μl of a PE-labeled MHC-tetramer reagent, 20 μl of an FITC-labeled antibody for T cell (for example, CD8, CD4, or CD3), and such were added to 200 μl of collected peripheral blood. A CD45 antibody labeled with PC5 or such may also be added to eliminate nonspecific fluorescence due to contaminated erythrocytes. After gentle mixing, the mixture was allowed to stand at room temperature for 30 minutes. OptiLyse B was added, and erythrolysis and fixation was carried out according to the manufacturer's protocol. Two ml of PBS was added, stirred, and the cells were centrifuged at 400×g for 5 minutes. After the supernatant was removed by aspiration, the cells were resuspended in 500 μl of PBS and analyzed using a flow cytometer within 24 hours.
Ten μl of a PE-labeled MHC-tetramer reagent, 20 μl of an FITC-labeled T cell surface antibody (for example, CD8, CD4, or CD3), and such were added to an appropriate amount of PBMCs (10^5 to 10^6 cells) or a CTL line induced by use of CTL epitope peptides. A CD45 antibody labeled with PC5 or such may also be added to eliminate nonspecific fluorescence due to contaminated erythrocytes. After gentle mixing, the cells were allowed to stand at room temperature for 30 minutes. Three ml of PBS was added, stirred, and the cells were centrifuged at 400×g for 5 minutes. After the supernatant was removed by aspiration, the cells were resuspended in 500 μl of PBS. When a CTL line is used, 7-AAD Viability Dye (Non-viable cell detection reagent; MBL Co.) may be added to eliminate nonspecific fluorescence caused by non-viable cells. The cells were analyzed using a flow cytometer within 24 hours.
The results of staining obtained using the five types of MHC-tetramer reagents used to prepare the peptide-induced CTL lines are shown in FIG. 5.

Row | Sequence | CD8-positive, IFNγ-positive (producing) cells in UR ([1]; donor *24-12) [%] | specific CTL induction, cytokine quantification method ([1]; donor ID *24-1) | specific CTL induction, cytokine quantification method ([1]; donor ID *24-2) | specific CTL induction, cytokine quantification method ([1]; donor ID *24-3) | specific CTL induction, cytokine quantification method ([1]; donor ID *24-5) | specific CTL induction, cytokine quantification method ([1]; donor ID *24-8) | specific CTL induction, cytokine quantification method ([1]; donor ID *24-10) | specific CTL induction, cytokine quantification method ([1]; donor ID *24-11) | specific CTL induction, cytokine quantification method ([1]; donor ID *24-12) | specific CTL induction, cytokine quantification method ([1]; donor ID *24-13) | specific CTL induction, cytokine quantification method ([1]; donor ID *24-14) | peptide-specific cytokine production in PBMCs derived from ten people with HLA-A*24 molecule [1] | number of persons with peptide-specific IFNγ production / CTL induction [1] | IFNγ spots in ELISPOT assay compared with the negative control (HIV) peptide [2] | other results
1 | LYSNVALYL | 2.95 | x | x | x | x | x | x | x | ∘ | ∘ | x | induce cytokine production in a peptide-specific manner | two of the ten persons | IFNγ spots were observed | specific CTL induction confirmed by CD8-positive, IFNγ-positive cells versus HIV peptide ([1]; donor ID*24-12, FIG. 3e-h): specific CTL induction was confirmed
2 | TYFSLNNKF (An artificially synthesized epitope peptide sequence) [reference compound] |  |  |  |  |  |  |  |  |  |  |  |  |  |  | IFNγ production of the CTL line induced by TYF on restimulation with the named peptide [3]: did not produce IFNγ; CD8-positive and TYF-Tet-positive cells ([3]; restimulated with the named peptide): 1.97%
3 | LYANSAHAL |  | x | x | ∘ | x | ∘ | x | x | x | x | x | induce cytokine production in a peptide-specific manner |  | IFNγ spots were observed | specific CTL induction confirmed by CD8-positive, IFNγ-positive cells versus HIV peptide ([1]; donor ID*24-8, FIG. 3a-d): induced specific CTLs
4 | TYPVLEEMF [EBV BRLF1, reference compound] | 9.57 | ∘ | ∘ | ∘ | x | ∘ | ∘ | ∘ | ∘ | ∘ | ∘ |  | nine of ten persons |  | CD8-positive, IFNγ-positive (producing) cells in UR ([1]; donor *24-8): 24.9%; specific CTLs (CD8-positive MHC-tetramer reagent-positive cells, UR) ([4]; donor ID*24-2, 13 days stimulation with the peptide, then HIV peptide added, % of whole viable cells): 13.0%; positive rate: CD8-positive, MHC-tetramer reagent-positive cells to viable cells ([4]; donor ID*24-8, PBMCs cultured with the epitope peptide for 10 days (day 10)): 15.6%; positive rate: CD8-positive, MHC-tetramer reagent-positive cells to viable cells ([4]; donor ID*24-8, immediately after blood collection (day 0)): 0.03%; increase of the positive rate from day 0 to day 10 ([4]; donor ID*24-8, ten days of culture with the peptide): about 520 times
